Results on one molecule are retold here after patent publication US20060004095A1, “Use of acetyl L-carnitine for the preparation of a medicine for the treatment of neuropathic pain in diabetic patients” (priority 2004, published 2006).

In assay [1] the test system is type I and II diabetics with symmetrical distal polyneuropathy or multineuropathy. To be noted: patients treated with acetyl L-carnitine out of 333 recruited; cited from earlier work.
Assay [2] relates to patients with type 2 diabetes not on insulin treatment. Nature of the assay: Double-blind placebo-controlled clinical trials in diabetic peripheral neuropathy, VAS pain assessment; population not on insulin. Particulars: active only at the higher dose (3 g/day). It counts as in vivo, human. As to the method: (§1) Two double-blind placebo-controlled clinical trials, identical in their experimental design, were conducted in patients with diagnoses of diabetic peripheral neuropathy selected according to the criteria established in the San Antonio, Tex. conference (Diabetes 37:1000-1004, 1988).
(§2) Acetyl L-carnitine was administered orally at doses of 1.5 g/day and 3.0 g/day for continuously for 52 weeks.
(§3) One objective of the studies consisted in the possible modification of the Visual Analogue Scale (VAS) (Scott J. Huskisson EC. Graphic representation of pain. Pain 1976;2:175-184) in the subjective assessment of pain symptoms and the main sensorimotor clinical parameters.

The test system of assay [3] is patients with type 2 diabetes on insulin treatment. Nature of the assay: Double-blind placebo-controlled clinical trials in diabetic peripheral neuropathy, VAS pain assessment; population on insulin. To be noted: even at the higher dose. It counts as in vivo, human. As to the method: as §1, §2, §3
The second population comprised patients with type 2 diabetes treated with insulin. Here, too, the population included a placebo group (Group 4) matching up to the same inclusion criteria as the patients treated with acetyl L-carnitine (on insulin treatment).

The structures appear in SMILES notation.

For `CC(=O)O[C@H](CC(=O)[O-])C[N+](C)(C)C` [Acetyl L-carnitine, acetyl L-carnitine], the “patients presenting an improvement in pain symptoms” value in assay [1] is given as 39%. In addition, the “activity compared to the placebo group at the end of treatment” value in assay [2] is reported as “active in a dose-related manner”. Further, the “activity compared to the control group” value in assay [3] is given as “no statistically significant difference in activity”.
